This passage reports Activity and EC50 results from ChEMBL document CHEMBL5518162, “Design, synthesis, and biological evaluation of 2-amino-6-methyl-phenol derivatives targeting lipid peroxidation with potent anti-ferroptotic activities” (Eur J Med Chem, 2024).

Assay [1] in a line: Antioxidant activity assessed as DPPH radical scavenging activity at 10 uM. It is filed as functional. On the technique in general: Loss of DPPH colour is used to gauge radical scavenging.
For assay [2], the system named is HT-1080. Description: Anti-ferroptotic activity against RSL3-induced ferroptosis in human HT-1080 cells assessed as inhibition of ferroptosis incubated for 24 hrs by CCK-8 assay. The assay is classed as functional, cell-based. Conditions: HT-1080, 24 h.
Assay [3] concerns HT-1080. The experiment in a line: Effect on FTH1 level in unstimulated human HT-1080 cells by measuring mRNA level by qRT-PCT analysis. The assay is classed as functional, cell-based.
The test system of assay [4] is HT-1080. Description: Effect on TFRC level in unstimulated human HT-1080 cells by measuring mRNA level by qRT-PCT analysis. The assay is classed as functional, cell-based.
Assay [5] deals with HT-1080. Description: Effect on GPX4 level in RSL3-induced human HT-1080 cells by measuring mRNA level by qRT-PCT analysis. The assay is classed as functional, cell-based.
Assay [6] deals with HT-1080. The experiment in a line: Effect on GPX4 level in unstimulated human HT-1080 cells by measuring mRNA level by qRT-PCT analysis. The assay is classed as functional, cell-based.
Assay [7] concerns HT-1080. Description: Effect on ACSL4 level in unstimulated human HT-1080 cells by measuring mRNA level by qRT-PCT analysis. It is filed as functional, cell-based.
Assay [8] concerns HT-1080. Description: Effect on DMT1 level in RSL3-induced human HT-1080 cells by measuring mRNA level by qRT-PCT analysis. The assay is classed as functional, cell-based.
The subject of assay [9] is HT-1080. Description: Effect on SLC7A11 level in unstimulated human HT-1080 cells by measuring mRNA level by qRT-PCT analysis. The assay is classed as functional, cell-based.
The test system of assay [10] is HT-1080. The experiment in a line: Suppression of RSL3-induced malondialdehyde adducts accumulation in human HT-1080 cells at 100 nM by lipid peroxidation (MDA) assay. It is filed as functional, cell-based.
Assay [11] relates to HT-1080. Description: Suppression of RSL-3 induced lipid ROS generation in human HT-1080 cells assessed as decrease in STY-BODIPY oxidation at 100 nM by C11-BODIPY581/591 staining based flow cytometry analysis. It is filed as functional, cell-based. A general note: Flow cytometry measures light scatter and fluorescence of single cells or particles in a stream.
Assay [12] concerns HT-1080. The experiment in a line: Effect on SLC7A11 level in RSL3-induced human HT-1080 cells by measuring mRNA level by qRT-PCT analysis. The assay is classed as functional, cell-based.
Assay [13] has as its system HT-1080. The experiment in a line: Effect on DMT1 level in unstimulated human HT-1080 cells by measuring mRNA level by qRT-PCT analysis. The assay is classed as functional, cell-based.
Assay [14] relates to HT-1080. Description: Effect on FTH1 level in RSL3-induced human HT-1080 cells by measuring mRNA level by qRT-PCT analysis. The assay is classed as functional, cell-based.
The subject of assay [15] is HT-1080. Description: Effect on TFRC level in RSL3-induced human HT-1080 cells by measuring mRNA level by qRT-PCT analysis. It is filed as functional, cell-based.
Assay [16] concerns HT-1080. Description: Effect on ACSL4 level in RSL3-induced human HT-1080 cells by measuring mRNA level by qRT-PCT analysis. It is filed as functional, cell-based.
Assay [17] concerns HT-1080. The experiment in a line: Suppression of RSL-3 induced lipid ROS generation in human HT-1080 cells assessed as decrease in STY-BODIPY oxidation at 100 nM by C11-BODIPY581/591 staining based confocal microscopy. The assay is classed as functional, cell-based.
Assay [18] deals with HT-1080. Description: Anti-ferroptotic activity against BSO-induced ferroptosis in human HT-1080 cells assessed as […] at 100 nM incubated for 24 hrs by CCK-8 assay. It is filed as functional, cell-based.
Assay [19] concerns HT-1080. Description: Anti-ferroptotic activity against RSL3-induced ferroptosis in human HT-1080 cells assessed as reduction in cell death at 100 nM incubated for 24 hrs by CCK-8 assay. It is filed as functional, cell-based. (In general: Tetrazolium assays rely on reduction of a dye to a coloured formazan, in cell work by metabolically active cells.)
Assay [20] deals with HT-1080. The experiment in a line: Anti-ferroptotic activity against erastin-induced ferroptosis in human HT-1080 cells assessed as reduction in cell death at 100 nM incubated for 24 hrs by CCK-8 assay. It is filed as functional, cell-based.
Assay [21] concerns Mus musculus. The experiment in a line: Protection of kidney in ischemia-reperfusion-induced kidney injury C57BL/6Nj mouse model assessed as focal eosinophilic degeneration of renal tubular epithelial cells in the extra medullary zone at 10 mg/kg, ip pretreated for 1 hr followed by bilateral artery clamping for 45 mins and measured after 24 hrs by hematoxylin and eosin staining based analysis. It is filed as functional, organism-based. To be noted: time 1545.0 min.

The test system of assay [22] is Mus musculus. Description: Protection of kidney in ischemia-reperfusion-induced kidney injury C57BL/6Nj mouse model assessed as reduction of serum creatinine level at 10 mg/kg, ip pretreated for 1 hr followed by bilateral artery clamping for 45 mins and measured after 24 hrs. The assay is classed as functional, organism-based.
Assay [23] relates to HeLa. Description: Anti-ferroptotic activity against RSL3-induced ferroptosis in human HeLa cells assessed as […] at 100 nM incubated for 24 hrs by CCK-8 assay. It is filed as functional, cell-based.
In assay [24] the test system is HepG2. The experiment in a line: Anti-ferroptotic activity against RSL3-induced ferroptosis in human HepG2 cells assessed as […] at 100 nM incubated for 24 hrs by CCK-8 assay. It is filed as functional, cell-based.
Assay [25] concerns HT-1080. The experiment in a line: Anti-ferroptotic activity against ML210-induced ferroptosis in human HT-1080 cells assessed as reduction in cell death at 100 nM incubated for 24 hrs by CCK-8 assay. It is filed as functional, cell-based.
Assay [26] deals with Mus musculus. The experiment in a line: Protection of kidney in ischemia-reperfusion-induced kidney injury C57BL/6Nj mouse model assessed as reduction of blood urea nitrogen level at 10 mg/kg, ip pretreated for 1 hr followed by bilateral artery clamping for 45 mins and measured after 24 hrs. The assay is classed as functional, organism-based.
The subject of assay [27] is Mus musculus. The experiment in a line: Protection of kidney in ischemia-reperfusion-induced kidney injury C57BL/6Nj mouse model assessed as prevention of […] by measuring 4-HNE at 10 mg/kg, ip pretreated for 1 hr followed by bilateral artery clamping for 45 mins and measured after 24 hrs by immunohistochemistry staining based analysis. The assay is classed as functional, organism-based. To be noted: time 1545.0 min.

Assay [28] has as its system HT-1080. Description: Anti-ferroptotic activity against FIN56-induced ferroptosis in human HT-1080 cells assessed as reduction in cell death at 100 nM incubated for 24 hrs by CCK-8 assay. It is filed as functional, cell-based.
Assay [29] concerns Mus musculus. Description: Protection of kidney in ischemia-reperfusion-induced kidney injury C57BL/6Nj mouse model assessed as focal necrosis of renal tubular epithelial cells and nuclear fixation at 10 mg/kg, ip pretreated for 1 hr followed by bilateral artery clamping for 45 mins and measured after 24 hrs by hematoxylin and eosin staining based analysis. It is filed as functional, organism-based. Conditions: time 1545.0 min.

Assay [30] deals with Huh-7. The experiment in a line: Anti-ferroptotic activity against RSL3-induced ferroptosis in human Huh-7 cells assessed as […] at 100 nM incubated for 24 hrs by CCK-8 assay. The assay is classed as functional, cell-based.
The subject of assay [31] is HTR-8/SVneo. Description: Anti-ferroptotic activity against RSL3-induced ferroptosis in human HTR-8/SVneo cells assessed as […] at 100 nM incubated for 24 hrs by CCK-8 assay. The assay is classed as functional, cell-based.
For assay [32], the system named is HT-1080. Description: Anti-ferroptotic activity against erastin-induced ferroptosis in human HT-1080 cells assessed as […] incubated for 24 hrs by CCK-8 assay. It is filed as functional, cell-based.
Assay [33] has as its system HT-1080. Description: Anti-ferroptotic activity against erastin-induced ferroptosis in human HT-1080 cells assessed as reduction in cell viability at 250 nM incubated for 24 hrs by CCK-8 assay. It is filed as functional.
In assay [34] the test system is HT-1080. The experiment in a line: Anti-ferroptotic activity against RSL3-induced ferroptosis in human HT-1080 cells assessed as preservation of cell viability above […] incubated for 24 hrs by CCK-8 assay. The assay is classed as functional, cell-based.
Assay [35] has as its system HT-1080. Description: Anti-ferroptotic activity against RSL3-induced ferroptosis in human HT-1080 cells assessed as […] incubated for 24 hrs by CCK-8 assay. The assay is classed as functional, cell-based. To be noted: dose 0.1-1 µM.
Assay [36] deals with HT-1080. The experiment in a line: Anti-ferroptotic activity against RSL3-induced ferroptosis in human HT-1080 cells assessed as reduction in cell viability at 250 nM incubated for 24 hrs by CCK-8 assay. It is filed as functional.
The test system of assay [37] is HT-1080. Description: Anti-ferroptotic activity against erastin-induced ferroptosis in human HT-1080 cells assessed as preservation of cell viability above […] incubated for 24 hrs by CCK-8 assay. The assay is classed as functional, cell-based.

Structures are written as SMILES. Calls of active or inactive are those of the source. The rule behind the calls is not given here. Bounds are passed on as bounds.

With `CC(=O)c1cccc(N)c1O`, the outcome in assay [1] was Active. The EC50 in [2] was over 10000 nM.
In the same order, the values of `Cc1cccc(N)c1OCc1ccccc1` are “Active” and over 10000 nM.
As for `COc1c(C)cccc1N`, in [1], the result was Active. In addition, the EC50 in assay [2] is over 10000 nM.
For `Cc1cccc(NCc2ccc(Cl)cc2)c1O`, the result in [3], in assay [4], in assay [5], in assay [6], in assay [7] and in assay [8] was inactive. The outcome in assay [9], in assay [12], in assay [13], in [14], in assay [15] and in [16] was inactive. The result in [1], in assay [10], in assay [11] and in assay [17] was Active. In assay [2], the EC50 worked out at 131 nM.
Turning to `CCNc1cccc(C)c1O`, in [1], the outcome was Active. Also, the EC50 in assay [2] turned out to be 60.4 nM.
With `Nc1cccc(C(=O)O)c1O`, the outcome in [1] was Active. Besides, the half-maximal effective concentration (EC50) in assay [2] was over 10000 nM.
Regarding `Cc1ccc(CNc2cccc(C)c2O)cc1`, the result in assay [18], in assay [1], in [19], in [20], in assay [21] and in [22] was Active. Moreover, the outcome in assay [23], in assay [10], in assay [24], in [11], in assay [25] and in assay [26] was Active. Moreover, the outcome in assay [27], in [28], in assay [29], in assay [17], in [30] and in assay [31] was Active. The outcome in [3], in assay [4], in [5], in [6], in assay [7] and in assay [8] was inactive. Besides, the outcome in [9], in assay [12], in [13], in assay [14], in assay [15] and in [16] was inactive. The EC50 in assay [2] stood at 25.5 nM.
In the case of `Cc1cccc(NCc2ccccc2)c1O`, the result in assay [1] was Active. Moreover, in assay [2], the EC50 worked out at 181 nM.
Consider `Cc1cccc(NCc2cccc([N+](=O)[O-])c2)c1O`, for which the result in assay [1] was Active. Moreover, the EC50 in assay [2] came out at 149 nM.
`CCCCNc1cccc(C)c1O`: the result in assay [3], in [4], in assay [5], in [6], in [7] and in assay [8] was inactive. Further, the outcome in assay [9], in assay [12], in [13], in [14], in [15] and in assay [16] was inactive. Besides, the result in assay [1], in [10], in assay [11] and in assay [17] was Active. The EC50 in [2] was determined as 74.7 nM.
For `COC(=O)c1ccc(CNc2cccc(C)c2O)cc1`, in assay [1], the outcome was Active. Moreover, the EC50 in assay [2] was found to be 164 nM.
Take `COc1ccc(CNc2cccc(C)c2O)cc1`: the outcome in [1] was Active. Besides, in [2], the EC50 came out at 78.9 nM.
With `Cc1cccc([N+](=O)[O-])c1O`, the outcome in assay [1] was Active. In addition, the EC50 in [2] was over 10000 nM.
`Cc1cccc(N)c1O`: the outcome in assay [1], in assay [34] and in assay [37] was Active. Also, the Activity result is “Dose-Dependent Effect” in assay [32], 100% in [33], “Dose-Dependent Effect” in [35] and 100% in assay [36]. The EC50 in assay [32] (HT-1080, 24 h) stood at 132 nM; in assay [2], 207 nM.
`Cc1cccc(NCc2cccc(C#N)c2)c1O`: the result in assay [1] was Active. In [2], the EC50 was found to be 158 nM.
In the case of `CCOC(=O)c1ccc(NC2CCCCC2)c(N)c1`, the outcome in assay [1], in assay [11] and in [17] was Active. Also, the EC50 in assay [2] worked out at 138 nM.

One may read the EC50 as the midpoint of the concentration-response curve.
